# Source: patent US20240269139A1, “COMPOUNDS FOR TARGETED PROTEIN DEGRADATION OF KINASES” (DANA-FARBER CANCER INSTITUTE, INC., priority 2020, published 2024)
# Like-named read-outs stand apart in the source and are kept apart here.
# Legend:
# [1] = target: protein kinases (human kinome) (Homo sapiens, UniProt Q16877); assay type: cell-based; conditions: PFKFB4 (Q16877); experiment wp071
# CRBN = target: T1, CRBN (Homo sapiens, UniProt Q96SW2); experiment: Competitive displacement assay for cellular CRBN engagement (BRD4BD2-GFP reporter, dBET6); assay type: cell-based, H. sapiens; conditions: 5 hours in presence of dBET6
# T1 construct: HEK293T cells stably expressing the BRD4BD2-GFP with mCherry reporter; endogenous in cells; host or cells: HEK293T stably expressing BRD4BD2-GFP / mCherry reporter
# Description: HEK293T cells stably expressing the BRD4BD2-GFP with mCherry reporter were seeded at 30-50% confluency in 384-well plates with 50 μL FluoroBrite™ Dulbecco's Modified Eagle's medium (DMEM) media (Thermo Fisher Scientific. A18967) containing 10% fetal bovine serum (FBS) per well a day before compound treatment. Degrader titrations and 100 nM dBET6 or 250 nM AT1 were dispensed using a D300e Digital Dispenser (HP), normalized to 0.5% DMSO, and incubated with cells for 5 hours. Assay plates were imaged using Acumen® (TTP Labtech), as described above.
# [2] = target: T2, CRBN-degrader-kinase ternary complexes (Homo sapiens, UniProt Q96SW2); experiment: FLAG-CRBN affinity purification TMT LC-MS3 (AP-MS) of degrader-mediated ternary complexes; assay type: cell-based, H. sapiens; conditions: HEK293T, 1 μM, 5 h, proteasome inhibitor
# T2 construct: host or cells: HEK293T
# Source text: An important aspect of protein degraders is the multifaceted nature of the molecule that enables heightened target selectivity due to differences in complementarity of target-ligase interactions, which is not a consideration when assessing selectivity of inhibitors for target engagement (Famaby el al., Nat Chem Biol 15:672-680 (2019)). For compound-induced degradation to be successful, productive ternary complex formation (ligase-degrader-POI) is necessary for proximity-mediated ubiquitin transfer onto the POI. […] Cellular affinity purification was performed, followed by mass spectrometry (AP-MS) of FLAG-tagged CRBN transiently overexpressed in HEK293T cells. FLAG-CRBN expressing cells were co-treated with proteosome inhibitor and 1 μM of each degrader for 5 h, and the degree of kinase target enrichment was compared to kinase degradation hits in matched global proteomics analysis experiments (FIG. 3A, FIG. 3C). The proteins identified as complexed with CRBN were enriched for kinases as well as their known binding partners such as Cyclin B (CDK1) and RASSF1 (STK4), consistent with the binding profiles of the assayed degraders. All kinases identified by AP-MS except CSNK1A1 were also detected in the HEK293T whole proteome degrader profiling experiment, allowing us to interrogate trends across 52 unique kinases (FIG. 4A; FIG. 11B). Limitations of this experiment include the potential loss of transient or weakly bound complexes in the enrichment and subsequent wash steps, the inherent noise associated with AP-MS relative to global proteomics analysis (Dunham et al., Proteomics 12:1576-1590 (2012): Yugandhar et al., Comput Struct Biotechnol J 17:805-811 (2019)) and the short time point of the experiment, which precludes detection of degradation events with slow kinetics. Therefore, the relationship between the formation of abundant, stable ternary complexes and rapid degradation was assessed.
# HEK293T cells were seeded into 15 cm plates and cells were transiently transfected with 8 μg of pNTM-FLAG-CRBN construct using lipofectamine 2000. […] Cells were harvested with non-enzymatic CellStripper™ Dissociation reagent (Corning®), followed by three washes with cold PBS and snap freezing. Cell lysis was performed by the addition of IP lysis buffer (50 mM Tris. pH 7.5, 0.5% NP-40, 1 mM EDTA, 10% glycerol and 200 mM NaCl) containing protease inhibitor cocktail (cOmplete™) and relevant co-treatment (above), followed by end-over-end rotation at 4° C. for 3 hours. Lysate was clarified by centrifugation and salt concentration diluted to 100 mM NaCl with the addition of 0 mM NaCl lysis buffer (containing protease inhibitors and 1 μM of relevant compounds to retain temary complexes throughout binding). Lysate was added to 20 μL of pre-washed anti-FLAG M2 magnetic bead slurry (MilliporeSigma) and incubated with end-over-end rotation at 4° C. overnight. Beads were washed six times with 100 mM NaCl lysis buffer containing 1 μM of relevant degraders to retain ternary complexes throughout wash steps.
# Proteins were eluted in a two-step elution with the addition of 0.1 M Glycine hydrochloride (MilliporeSigma) and elution buffered to pH 8.5 using 200 mM Tris buffer, pH 8.5. […] Protein pellets were resuspended in 50 μL of EPPs pH 8 and first digested with 2 μg LysC for 12 h at room temperature (RT), followed by 1 μg of trypsin for 6 hours at 37° C.
# [3] = assay type: cell-based, H. sapiens; conditions: MOLT-4, 1 μM, 5 h, 5 μM CB-5083
# [4] = test system: protein kinases (human kinome); assay type: cell-based
# [5] = target: protein kinases (human kinome) (Homo sapiens, UniProt P49759); assay type: cell-based
# [6] = target: T3, protein kinases (human kinome) (Homo sapiens, UniProt P52789); assay type: cell-based; conditions: HK2 (P52789); experiment wp076
# T3 sequence (P52789 1-917): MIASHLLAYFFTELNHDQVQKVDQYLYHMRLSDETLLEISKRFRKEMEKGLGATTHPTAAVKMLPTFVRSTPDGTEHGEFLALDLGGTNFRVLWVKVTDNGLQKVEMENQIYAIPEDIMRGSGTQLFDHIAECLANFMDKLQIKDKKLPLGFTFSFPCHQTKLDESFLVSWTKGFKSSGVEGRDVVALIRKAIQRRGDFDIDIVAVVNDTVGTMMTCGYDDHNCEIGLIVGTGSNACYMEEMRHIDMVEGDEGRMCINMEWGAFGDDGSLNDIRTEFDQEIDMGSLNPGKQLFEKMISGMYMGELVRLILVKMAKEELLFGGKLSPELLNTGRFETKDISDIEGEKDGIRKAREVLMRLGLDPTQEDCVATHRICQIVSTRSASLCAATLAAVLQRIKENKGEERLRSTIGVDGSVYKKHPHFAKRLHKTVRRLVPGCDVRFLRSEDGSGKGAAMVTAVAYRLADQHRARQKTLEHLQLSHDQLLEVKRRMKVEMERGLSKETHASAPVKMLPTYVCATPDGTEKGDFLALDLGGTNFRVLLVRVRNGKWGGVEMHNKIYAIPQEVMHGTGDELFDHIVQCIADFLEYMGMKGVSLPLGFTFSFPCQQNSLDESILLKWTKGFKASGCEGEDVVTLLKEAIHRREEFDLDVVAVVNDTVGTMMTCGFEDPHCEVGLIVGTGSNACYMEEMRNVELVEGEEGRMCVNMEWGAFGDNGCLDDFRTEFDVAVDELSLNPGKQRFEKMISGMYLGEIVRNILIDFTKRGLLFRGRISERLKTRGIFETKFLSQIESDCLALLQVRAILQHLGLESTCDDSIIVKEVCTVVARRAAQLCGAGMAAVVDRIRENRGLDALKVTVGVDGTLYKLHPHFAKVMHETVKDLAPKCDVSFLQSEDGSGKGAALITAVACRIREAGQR
# [7] = target: protein kinases (human kinome) (Homo sapiens, UniProt P30291); assay type: cell-based; conditions: experiment wp076
# [8] = target: protein kinases (human kinome) (Homo sapiens, UniProt Q14289); assay type: cell-based
# [9] = target: protein kinases (human kinome) (Homo sapiens, UniProt P51812); assay type: cell-based; conditions: RPS6KA3 (P51812), experiment wp076
# [10] = target: T4, protein kinases (human kinome) (Homo sapiens, UniProt O60285); assay type: cell-based; conditions: NUAK1 (O60285), experiment wp076
# T4 sequence (O60285 1-661): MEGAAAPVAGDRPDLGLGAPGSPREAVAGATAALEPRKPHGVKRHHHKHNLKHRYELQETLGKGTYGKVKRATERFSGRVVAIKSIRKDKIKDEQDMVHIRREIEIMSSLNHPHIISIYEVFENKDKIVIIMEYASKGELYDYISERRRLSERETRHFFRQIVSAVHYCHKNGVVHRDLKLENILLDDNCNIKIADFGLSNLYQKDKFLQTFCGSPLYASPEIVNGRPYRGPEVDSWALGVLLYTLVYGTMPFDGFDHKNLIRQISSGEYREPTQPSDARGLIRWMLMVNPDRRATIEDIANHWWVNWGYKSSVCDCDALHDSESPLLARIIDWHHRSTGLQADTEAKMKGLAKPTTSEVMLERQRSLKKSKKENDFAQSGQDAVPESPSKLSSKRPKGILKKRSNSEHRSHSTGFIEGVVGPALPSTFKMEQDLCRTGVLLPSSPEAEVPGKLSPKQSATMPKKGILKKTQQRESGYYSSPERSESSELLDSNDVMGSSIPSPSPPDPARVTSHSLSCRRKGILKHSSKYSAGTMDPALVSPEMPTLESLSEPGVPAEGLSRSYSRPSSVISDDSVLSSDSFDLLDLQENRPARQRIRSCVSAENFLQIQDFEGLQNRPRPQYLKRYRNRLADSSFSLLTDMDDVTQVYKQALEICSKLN
# [11] = target: protein kinases (human kinome) (Homo sapiens, UniProt Q9BYT3); assay type: cell-based; conditions: STK33 (Q9BYT3-1), experiment wp076
# [12] = target: T5, protein kinases (human kinome) (Homo sapiens, UniProt O14965); assay type: cell-based; conditions: experiment wp076
# T5 sequence (O14965 1-403): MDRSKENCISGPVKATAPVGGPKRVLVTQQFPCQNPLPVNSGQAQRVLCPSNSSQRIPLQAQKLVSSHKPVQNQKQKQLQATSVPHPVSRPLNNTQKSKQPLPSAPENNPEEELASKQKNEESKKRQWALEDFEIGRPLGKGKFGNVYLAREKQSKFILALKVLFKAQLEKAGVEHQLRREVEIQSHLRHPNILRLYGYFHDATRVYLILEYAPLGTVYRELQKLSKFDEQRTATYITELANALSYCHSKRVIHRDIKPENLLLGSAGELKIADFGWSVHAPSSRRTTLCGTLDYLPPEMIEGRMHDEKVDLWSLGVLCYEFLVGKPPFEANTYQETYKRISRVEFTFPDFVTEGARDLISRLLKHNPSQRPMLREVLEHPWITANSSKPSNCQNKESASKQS
compound,measurement,setting,value
COc1cc(N2CCN(CC(=O)NCCCCCCNc3cccc4c3C(=O)N(C3CCC(=O)NC3=O)C4=O)CC2)ccc1Nc1ncc2c(n1)N(C)c1ccccc1C(=O)N2CC(F)(F)F (centres unmarked) [FMF.04.135.1],logFC,[1],−0.4969
Nc1ncc(-c2ccc(S(=O)(=O)N(CCCNC(=O)CCOCCOCCOCCOCCOCCNc3cccc4c3C(=O)N(C3CCC(=O)NC3=O)C4=O)C3CC3)cc2)cc1-c1ccc2c(c1)CCNC2=O (centres unmarked) [WH-10417-099],cellular permeability / CRBN engagement,CRBN,able to permeate the cell membrane and bind to the CRBN E3 ligase
same,IRAK1: ternary complex formation with CRBN versus degradation,[2],complex formation does not predict degradation
same,STK4 degradation rescue on p97 inhibition,[3],very little degradation rescue
same,targets with significantly different degrader efficacy in the different cell lines with no obvious difference in protein expression,"[4]; MOLT-4, KELLY, HEK293T",GSK3B
same,kinases the bifunctional compound degrades,[4]; as stated for the structure in the embodiments,"CDK14, CSNK1A1, CSNK1D, CSNK1E, GSK3A, GSK3B, LIMK2, MAP3K1, MINK1, NUAK1, PAK4, PIM2, STK10, STK17B, STK35, and STK4"
same,Kinase hits,"[4]; kinases significantly downregulated vs DMSO (fold change cutoff −1.25, P-value<0.01), ≤8 h, 0.1-5 μM degrader, 7 cell lines","CDK14, CSNK1A1, CSNK1D, CSNK1E, GSK3A, GSK3B, LIMK2, MAP3K1, MINK1, NUAK1, PAK4, PIM2, STK10, STKI7B, STK35, STK4"
same,Total no. kinase hits,[4]; number of degraded kinases per library compound,13
Cc1ncsc1-c1ccc([C@H](C)NC(=O)[C@@H]2C[C@@H](O)CN2C(=O)[C@@H](NC(=O)CCOCCOCCOCCN2CCC(C(=O)Nc3ncc(SCc4ncc(C(C)(C)C)o4)s3)CC2)C(C)(C)C)cc1 [ZZ.01.31B],logFC,"[4]; CDK9 (P50750-2) protein abundance, degrader vs DMSO, down",−0.837
same,logFC CDK9 (P50750-2),[4]; Experiment wp195,−0.837
same,logFC CLK1,"[5]; CLK1 P49759, experiment wp195",−0.3482
same,logFC of CLK1 (P49759),[5]; Experiment wp195,−0.3482
CNC(=O)c1ccccc1Nc1cc(Nc2ccc(N3CCN(CCCCCCCCNc4cccc5c4C(=O)N(C4CCC(=O)NC4=O)C5=O)CC3)cc2OC)ncc1C(F)(F)F (centres unmarked) [MFH.5.116.1],logFC RPS6KA1,"[4]; RPS6KA1 (Q15418-2), experiment wp076",−0.5757
same,logFC RPS6KA1 (Q15418-2),[4]; experiment wp076,−0.5757
same,logFC,[6],−0.4347
same,logFC of WEE1,"[7]; WEE1 P30291-1, degrader vs DMSO",−0.4799
same,logFC WEE1 (P30291-1),[7],−0.4799
same,logFC,"[8]; PTK2B (Q14289-1) protein abundance, degrader vs DMSO, down",−2.946
same,logFC PTK2B,"[8]; PTK2B, accession Q14289-1, experiment wp076, direction of change down",−2.946
same,logFC,[9],−0.369
same,logFC,[9]; direction down,−0.369
same,logFC,[10],−0.7078
same,logFC,[10]; direction down,−0.7078
same,logFC,[11],−1.382
same,logFC,[11]; direction down,−1.382
same,logFC AURKA (O14965),[12],−0.707
